Reference: PubChem BioAssay (NCI)
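Interpolation was linear, between the two tested concentrations surrounding the appropriate level; five concentrations were tested over 48 hours in 96-well plates. Abbreviation: GI50, concentration required for 50% inhibition of growth. TGI: concentration producing complete growth inhibition.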

Legend:
Experiment in all cases: NCI anticancer screen, dose series, 48 h
[1] = system: TK-10 renal
[2] = system: SK-MEL-5 melanoma
[3] = system: U251 CNS
[4] = system: SNB-19 CNS
[5] = system: KM12 colon
[6] = system: UO-31 renal
[7] = system: ACHN renal
[8] = system: HOP-92 NSCLC
[9] = system: RPMI-8226 leukemia
[10] = system: MDA-MB-231 breast

CC(=O)[CH-]C(=O)c1ccccc1.CC(=O)[CH-]C(=O)c1ccccc1.CN(C)c1ccc([O-])cc1.CN(C)c1ccc([O-])cc1.Cl.[Ti+4]
GI50 [1]: 71.6 µM | TGI [1]: > 100 µM | GI50 [2]: 40 µM | TGI [2]: > 88 µM | GI50 [3]: > 31.6 µM | TGI [3]: > 31.6 µM | GI50 [4]: 22 µM | TGI [4]: > 31.6 µM | GI50 [5]: 13.2 µM | TGI [5]: 23.8 µM | GI50 [6]: 17.9 µM | TGI [6]: > 31.6 µM | GI50 [7]: 16.9 µM | TGI [7]: > 31.6 µM | GI50 [8]: 14.9 µM | TGI [8]: 27.5 µM | GI50 [9]: 16.8 µM | TGI [9]: > 31.6 µM

COC(=O)C1(C(C)C)CCc2c(OC)ccc(OC)c2C1=O (centres undefined)
TGI [1]: > 100 µM | TGI [2]: > 100 µM | TGI [3]: > 100 µM | TGI [4]: > 100 µM | TGI [5]: > 100 µM | TGI [6]: > 100 µM | TGI [7]: > 100 µM | TGI [9]: > 100 µM

Cc1cc(-c2nc(C(=O)Nc3cc4oc(N5CCOCC5)nc4nc3N3CC[C@@H](O)C3)co2)ccn1
GI50 [1]: 26.7 µM | TGI [1]: > 100 µM | GI50 [10]: 45.6 µM | TGI [10]: > 100 µM | GI50 [2]: 45.7 µM | TGI [2]: > 100 µM | GI50 [3]: 74.3 µM | TGI [3]: > 100 µM | GI50 [4]: 78.8 µM | TGI [4]: > 100 µM | GI50 [5]: 3.46 µM | TGI [5]: > 100 µM | GI50 [6]: 14.9 µM | TGI [6]: 68.7 µM | GI50 [7]: 17.9 µM | TGI [7]: 93.7 µM | GI50 [9]: 25.8 µM | TGI [9]: > 100 µM

O=C(CC(=O)c1cccc2ccccc12)C(=O)Nc1ccc(Cl)cc1
TGI [1]: > 100 µM | TGI [2]: > 100 µM | TGI [3]: > 100 µM | TGI [4]: > 100 µM | TGI [5]: > 100 µM | TGI [6]: > 100 µM | TGI [7]: > 100 µM | TGI [8]: > 100 µM | TGI [9]: > 100 µM

COc1cc2cc(OC)c3cc4c(cc3c2c(OC)c1OC)OCO4
TGI [1]: > 84.4 µM | TGI [2]: > 57.2 µM | TGI [3]: > 59.3 µM | TGI [4]: > 100 µM | TGI [5]: > 51.2 µM | TGI [6]: > 67.8 µM | TGI [7]: > 100 µM | TGI [8]: > 93.3 µM | TGI [9]: 52.9 µM

CCn1c(C)nn2c(=O)c3ccccc3nc2c1=O
TGI [1]: > 100 µM | TGI [2]: > 100 µM | TGI [3]: > 100 µM | TGI [5]: > 100 µM | TGI [7]: > 100 µM | TGI [8]: > 100 µM | TGI [9]: > 100 µM

CC1(C)C(=O)/C=C\C(=O)C(C)(C)C2=CC=C(O2)C(C)(C)C(=O)/C=C\C(=O)C(C)(C)C2=CC=C1O2
TGI [1]: > 100 µM | TGI [3]: > 100 µM | TGI [4]: > 100 µM | TGI [5]: > 100 µM | TGI [7]: > 100 µM | TGI [8]: > 100 µM

Cc1nc2c(ccc3ncccc32)[nH]1
TGI [1]: > 100 µM | TGI [2]: > 100 µM | TGI [3]: > 100 µM | TGI [4]: > 100 µM | TGI [5]: > 100 µM | TGI [6]: > 100 µM | TGI [7]: > 100 µM | TGI [8]: > 100 µM | TGI [9]: > 100 µM

COc1cc2c(c(OC)c1OC)-c1ccc(NNC(N)=S)c(=O)cc1[C@@H](NC(C)=O)CC2
GI50 [1]: > 26 µM | TGI [1]: > 100 µM | GI50 [10]: 0.327 µM | TGI [10]: 3.52 µM | GI50 [2]: 0.345 µM | TGI [2]: 2.52 µM | GI50 [3]: 0.415 µM | TGI [3]: > 100 µM | GI50 [4]: 0.558 µM | TGI [4]: > 100 µM | GI50 [5]: 0.301 µM | TGI [5]: 1.92 µM | GI50 [6]: > 25.9 µM | TGI [6]: > 100 µM | GI50 [7]: 7.19 µM | TGI [7]: > 100 µM | GI50 [9]: 0.39 µM | TGI [9]: > 29.4 µM

CCCC1C(=O)CCc2c(OC)ccc(OC)c21 (centres undefined)
TGI [1]: > 100 µM | TGI [2]: > 100 µM | TGI [3]: > 100 µM | TGI [4]: > 100 µM | TGI [5]: > 100 µM | TGI [6]: > 100 µM | TGI [7]: > 100 µM | TGI [9]: > 100 µM

COC(=O)CC[N+]1=CCC(c2ccccc2)(c2ccccc2)O1
TGI [1]: > 100 µM | TGI [10]: > 100 µM | TGI [2]: > 100 µM | TGI [3]: > 100 µM | TGI [4]: > 100 µM | TGI [5]: > 100 µM | TGI [6]: > 100 µM | TGI [7]: > 100 µM | TGI [8]: > 100 µM

O=C(O)CCNCCCNCCC(=O)O
TGI [1]: > 100 µM | TGI [2]: > 100 µM | TGI [3]: > 100 µM | TGI [4]: > 100 µM | TGI [5]: > 100 µM | TGI [7]: > 100 µM | TGI [8]: > 100 µM | TGI [9]: > 100 µM

COC(=O)/C(C#N)=C1\NC(=O)c2ccccc21
TGI [1]: > 100 µM | TGI [2]: > 100 µM | TGI [3]: > 100 µM | TGI [4]: > 100 µM | TGI [5]: > 100 µM | TGI [6]: > 100 µM | TGI [7]: > 100 µM | TGI [8]: > 100 µM | TGI [9]: > 100 µM

CCN1CCN(Cc2ccc(NC(=O)c3cccc(C#Cc4cccc5[nH]nc(N)c45)c3)cc2C(F)(F)F)CC1
GI50 [1]: 0.631 µM | TGI [1]: 1.75 µM | GI50 [10]: 0.12 µM | TGI [10]: 0.573 µM | GI50 [4]: 1.07 µM | TGI [4]: 2.3 µM | GI50 [5]: 0.302 µM | TGI [5]: 1.33 µM | GI50 [6]: 0.299 µM | TGI [6]: 1.28 µM | GI50 [7]: 0.18 µM | TGI [7]: 0.933 µM | GI50 [8]: 0.35 µM | TGI [8]: 1.89 µM | GI50 [9]: 0.702 µM | TGI [9]: 3.04 µM

CCOC(=O)C(C)(C)Oc1ccc2c(-c3ccccc3)cc(=O)oc2c1
TGI [1]: > 100 µM | TGI [2]: 26.9 µM | TGI [3]: > 100 µM | TGI [4]: > 100 µM | TGI [6]: 76 µM | TGI [7]: > 100 µM | TGI [9]: 49.9 µM

Cc1cc(NS(=O)(=O)c2ccc(Nc3c4ccccc4nc4c(C(=O)N5CCN(CCOS(C)(=O)=O)CC5)cccc34)cc2)no1
TGI [1]: > 100 µM | TGI [2]: > 100 µM | TGI [3]: > 100 µM | TGI [4]: > 100 µM | TGI [5]: > 100 µM | TGI [6]: > 100 µM | TGI [7]: > 100 µM | TGI [8]: > 100 µM | TGI [9]: > 100 µM

COc1cc2ccnc([C@@H](OC(=O)c3ccccc3)c3ccc(OC)c(OC)c3OC)c2cc1OC
TGI [1]: > 100 µM | TGI [2]: 56.6 µM | TGI [3]: > 100 µM | TGI [4]: > 100 µM | TGI [5]: > 100 µM | TGI [6]: 76.3 µM | TGI [7]: > 100 µM | TGI [8]: > 100 µM | TGI [9]: > 100 µM

O=C(Nc1nc2ccc([N+](=O)[O-])cc2s1)C(=O)C(C1OC(=O)c2ccccc21)[N+](=O)[O-] (centres undefined)
TGI [1]: > 100 µM | TGI [2]: > 100 µM | TGI [3]: > 100 µM | TGI [4]: > 100 µM | TGI [5]: > 100 µM | TGI [6]: 94.4 µM | TGI [7]: > 100 µM | TGI [8]: 82.9 µM | TGI [9]: > 100 µM

COc1ccc2c(c1)sc1nc(-c3ccccc3)c(-c3cccc4ccccc34)n12
GI50 [1]: 5.17 µM | TGI [1]: > 100 µM | GI50 [10]: 1.32 µM | TGI [10]: > 100 µM | GI50 [2]: 0.233 µM | TGI [2]: 0.856 µM | GI50 [3]: 0.447 µM | TGI [3]: > 100 µM | GI50 [4]: 0.589 µM | TGI [4]: > 100 µM | GI50 [5]: 0.429 µM | TGI [5]: > 34.7 µM | GI50 [6]: 1.34 µM | TGI [6]: > 100 µM | GI50 [7]: 0.76 µM | TGI [7]: > 100 µM | GI50 [9]: 0.99 µM | TGI [9]: 27.4 µM
